Measured values taken from the NIST ThermoML archive (doi:10.1016/j.jct.2010.08.010).

Settings: Liquid, Buoyancy - hydrostatic balance with magnetic suspension - one sinker

Cc1ccccc1 [toluene]
Settings	mass density [kg/m3]
233.15 K, 101.25 kPa	922.207
233.15 K, 1055.6 kPa	922.722
233.15 K, 1861.3 kPa	923.156
233.15 K, 3871.1 kPa	924.223
233.15 K, 5873.9 kPa	925.287
233.15 K, 8031.1 kPa	926.415
233.15 K, 9906.5 kPa	927.392
233.15 K, 11973 kPa	928.445
233.15 K, 13947 kPa	929.451
233.15 K, 15971 kPa	930.461
233.15 K, 18029 kPa	931.487
233.15 K, 19921 kPa	932.422
233.15 K, 22000 kPa	933.432
233.15 K, 24029 kPa	934.411
233.15 K, 25833 kPa	935.279
233.15 K, 27876 kPa	936.25
233.15 K, 29776 kPa	937.146
253.15 K, 102.01 kPa	903.705
253.15 K, 1102.6 kPa	904.316
253.15 K, 1837.1 kPa	904.762
253.15 K, 3915.8 kPa	906
253.15 K, 6024.3 kPa	907.237
253.15 K, 7905.8 kPa	908.333
253.15 K, 9884.5 kPa	909.467
253.15 K, 11995 kPa	910.665
253.15 K, 13975 kPa	911.777
253.15 K, 15951 kPa	912.877
253.15 K, 17978 kPa	913.989
253.15 K, 20022 kPa	915.098
253.15 K, 21921 kPa	916.119
253.15 K, 24088 kPa	917.274
253.15 K, 25990 kPa	918.275
253.15 K, 27827 kPa	919.23
253.15 K, 29746 kPa	920.223
273.15 K, 97.87 kPa	885.25
273.15 K, 1027.8 kPa	885.881
273.15 K, 1996.9 kPa	886.534
273.15 K, 4081.7 kPa	887.926
273.15 K, 5913.4 kPa	889.129
273.15 K, 8004.2 kPa	890.482
273.15 K, 9932.4 kPa	891.714
273.15 K, 11880 kPa	892.948
273.15 K, 13888 kPa	894.195
273.15 K, 16098 kPa	895.56
273.15 K, 18099 kPa	896.771
273.15 K, 19969 kPa	897.897
273.15 K, 21860 kPa	899.011
273.15 K, 23914 kPa	900.215
273.15 K, 25980 kPa	901.41
273.15 K, 28070 kPa	902.607
273.15 K, 30123 kPa	903.766
293.15 K, 99.87 kPa	866.733
293.15 K, 101.56 kPa	866.808
293.15 K, 1103.1 kPa	867.572
293.15 K, 1127.8 kPa	867.518
293.15 K, 1967 kPa	868.206
293.15 K, 2003.6 kPa	868.257
293.15 K, 2021.4 kPa	868.196
293.15 K, 3955.9 kPa	869.643
293.15 K, 4003.3 kPa	869.731
293.15 K, 4004.5 kPa	869.753
293.15 K, 5995 kPa	871.216
293.15 K, 6031.6 kPa	871.224
293.15 K, 6107.1 kPa	871.23
293.15 K, 8032.8 kPa	872.623
293.15 K, 8164.1 kPa	872.766
293.15 K, 8180.3 kPa	872.799
293.15 K, 9984.8 kPa	874.014
293.15 K, 10008 kPa	874.081
293.15 K, 10026 kPa	874.114
293.15 K, 12005 kPa	875.479
293.15 K, 12114 kPa	875.512
293.15 K, 12190 kPa	875.631
293.15 K, 13874 kPa	876.778
293.15 K, 13947 kPa	876.779
293.15 K, 14049 kPa	876.921
293.15 K, 15849 kPa	878.081
293.15 K, 16015 kPa	878.24
293.15 K, 16153 kPa	878.35
293.15 K, 17969 kPa	879.506
293.15 K, 18022 kPa	879.584
293.15 K, 18058 kPa	879.633
293.15 K, 19969 kPa	880.88
293.15 K, 19990 kPa	880.848
293.15 K, 20012 kPa	880.925
293.15 K, 21348 kPa	881.783
293.15 K, 21972 kPa	882.207
293.15 K, 22236 kPa	882.319
293.15 K, 23457 kPa	883.155
293.15 K, 23981 kPa	883.441
293.15 K, 24105 kPa	883.586
293.15 K, 25005 kPa	884.147
293.15 K, 25908 kPa	884.671
293.15 K, 26066 kPa	884.837
293.15 K, 27839 kPa	885.935
293.15 K, 27990 kPa	885.976
293.15 K, 28091 kPa	886.104
293.15 K, 28372 kPa	886.271
293.15 K, 29914 kPa	887.239
293.15 K, 30011 kPa	887.242
313.15 K, 100.25 kPa	848.035
313.15 K, 1103.1 kPa	848.903
313.15 K, 2030.6 kPa	849.693
313.15 K, 3897.3 kPa	851.277
313.15 K, 6141.8 kPa	853.137
313.15 K, 7925.2 kPa	854.59
313.15 K, 9859 kPa	856.142
313.15 K, 11935 kPa	857.774
313.15 K, 13950 kPa	859.327
313.15 K, 16069 kPa	860.941
313.15 K, 17874 kPa	862.289
313.15 K, 19838 kPa	863.738
313.15 K, 22114 kPa	865.383
313.15 K, 24097 kPa	866.799
313.15 K, 25913 kPa	868.068
313.15 K, 28005 kPa	869.523
313.15 K, 29966 kPa	870.863
333.15 K, 98.96 kPa	829.055
333.15 K, 1101 kPa	830.042
333.15 K, 2134.3 kPa	831.05
333.15 K, 4003.8 kPa	832.841
333.15 K, 6105.7 kPa	834.814
333.15 K, 8005 kPa	836.556
333.15 K, 9960.3 kPa	838.314
333.15 K, 12120 kPa	840.218
333.15 K, 14111 kPa	841.938
333.15 K, 15857 kPa	843.417
333.15 K, 18129 kPa	845.312
333.15 K, 19860 kPa	846.724
333.15 K, 22144 kPa	848.558
333.15 K, 24050 kPa	850.059
333.15 K, 25886 kPa	851.479
333.15 K, 28037 kPa	853.128
333.15 K, 29895 kPa	854.529
353.15 K, 100.22 kPa	809.674
353.15 K, 1169.9 kPa	810.881
353.15 K, 2003.6 kPa	811.814
353.15 K, 4142.5 kPa	814.153
353.15 K, 6005.5 kPa	816.142
353.15 K, 8141.3 kPa	818.365
353.15 K, 10004 kPa	820.255
353.15 K, 12008 kPa	822.24
353.15 K, 14198 kPa	824.368
353.15 K, 16142 kPa	826.212
353.15 K, 18101 kPa	828.027
353.15 K, 19917 kPa	829.683
353.15 K, 22138 kPa	831.662
353.15 K, 24034 kPa	833.323
353.15 K, 26059 kPa	835.06
353.15 K, 28105 kPa	836.785
353.15 K, 29954 kPa	838.316
373.15 K, 1259.9 kPa	791.299
373.15 K, 2065.8 kPa	792.34
373.15 K, 3870.7 kPa	794.611
373.15 K, 6198.3 kPa	797.456
373.15 K, 8095.9 kPa	799.709
373.15 K, 9917.3 kPa	801.809
373.15 K, 12114 kPa	804.274
373.15 K, 13934 kPa	806.263
373.15 K, 16020 kPa	808.493
373.15 K, 18023 kPa	810.573
373.15 K, 19927 kPa	812.508
373.15 K, 22108 kPa	814.677
373.15 K, 23970 kPa	816.486
373.15 K, 25950 kPa	818.372
373.15 K, 27874 kPa	820.167
373.15 K, 29907 kPa	822.029
393.15 K, 1097.4 kPa	770.672
393.15 K, 1998.7 kPa	772.03
393.15 K, 4084.6 kPa	775.078
393.15 K, 6214.8 kPa	778.084
393.15 K, 8059.3 kPa	780.589
393.15 K, 9988.4 kPa	783.137
393.15 K, 12134 kPa	785.871
393.15 K, 14051 kPa	788.257
393.15 K, 16078 kPa	790.683
393.15 K, 18012 kPa	792.945
393.15 K, 19811 kPa	794.994
393.15 K, 22110 kPa	797.55
393.15 K, 23923 kPa	799.514
393.15 K, 25870 kPa	801.576
393.15 K, 27974 kPa	803.747
393.15 K, 29891 kPa	805.692
413.15 K, 1099.1 kPa	749.389
413.15 K, 1960.8 kPa	750.924
413.15 K, 4038.3 kPa	754.503
413.15 K, 6026.6 kPa	757.773
413.15 K, 8189.1 kPa	761.18
413.15 K, 9852 kPa	763.702
413.15 K, 12117 kPa	767.016
413.15 K, 14168 kPa	769.904
413.15 K, 16108 kPa	772.544
413.15 K, 18095 kPa	775.165
413.15 K, 20104 kPa	777.733
413.15 K, 22152 kPa	780.275
413.15 K, 24009 kPa	782.518
413.15 K, 25996 kPa	784.857
413.15 K, 27793 kPa	786.922
413.15 K, 29815 kPa	789.193
433.15 K, 1101.8 kPa	726.984
433.15 K, 1976.7 kPa	728.858
433.15 K, 4084.4 kPa	733.177
433.15 K, 6154.5 kPa	737.18
433.15 K, 8078.7 kPa	740.731
433.15 K, 9952.6 kPa	744.032
433.15 K, 11980 kPa	747.451
433.15 K, 13969 kPa	750.677
433.15 K, 16091 kPa	753.964
433.15 K, 17961 kPa	756.765
433.15 K, 19890 kPa	759.561
433.15 K, 22082 kPa	762.624
433.15 K, 24002 kPa	765.215
433.15 K, 26049 kPa	767.899
433.15 K, 27836 kPa	770.185
433.15 K, 29993 kPa	772.844
453.15 K, 1107.5 kPa	703.102
453.15 K, 2037.8 kPa	705.548
453.15 K, 4185.3 kPa	710.874
453.15 K, 6060.4 kPa	715.218
453.15 K, 8005.2 kPa	719.474
453.15 K, 9870.3 kPa	723.328
453.15 K, 12115 kPa	727.721
453.15 K, 14139 kPa	731.482
453.15 K, 16027 kPa	734.835
453.15 K, 17928 kPa	738.09
453.15 K, 20153 kPa	741.727
453.15 K, 22071 kPa	744.756
453.15 K, 24057 kPa	747.767
453.15 K, 26029 kPa	750.661
453.15 K, 27966 kPa	753.404
453.15 K, 29817 kPa	755.955
473.15 K, 1104.4 kPa	677.2
473.15 K, 2031.3 kPa	680.289
473.15 K, 4033.8 kPa	686.456
473.15 K, 6024.4 kPa	692.111
473.15 K, 7930.8 kPa	697.122
473.15 K, 10107 kPa	702.459
473.15 K, 11931 kPa	706.639
473.15 K, 13959 kPa	711.045
473.15 K, 16004 kPa	715.254
473.15 K, 17878 kPa	718.918
473.15 K, 19844 kPa	722.599
473.15 K, 22088 kPa	726.587
473.15 K, 24074 kPa	729.989
473.15 K, 26038 kPa	733.203
473.15 K, 27840 kPa	736.071
473.15 K, 29806 kPa	739.091
